Results from PubChem BioAssay (NCI).
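48-hour exposure; five concentrations; linearly interpolated endpoints. Definition used: TGI = concentration required for complete inhibition of growth.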

How the values were obtained:
Experiment in all cases: inhibition of tumour cell growth, NCI panel, 48 h
HOP-18 NSCLC = test system: HOP-18 NSCLC
NCI-H23 lung = test system: NCI-H23 lung
IGROV1 ovarian = test system: IGROV1 ovarian
LXFL 529 NSCLC = test system: LXFL 529 NSCLC
SNB-78 CNS = test system: SNB-78 CNS
HCC-2998 colon = test system: HCC-2998 colon
M19-MEL melanoma = test system: M19-MEL melanoma
RPMI-8226 leukemia = test system: RPMI-8226 leukemia
HCT-116 colon = test system: HCT-116 colon
RXF 393 renal = test system: RXF 393 renal
HOP-62 NSCLC = test system: HOP-62 NSCLC
M14 melanoma = test system: M14 melanoma
EKVX NSCLC = test system: EKVX NSCLC
KM12 colon = test system: KM12 colon
SK-OV-3 ovarian = test system: SK-OV-3 ovarian
SF-539 CNS = test system: SF-539 CNS
SF-295 CNS = test system: SF-295 CNS
OVCAR-8 ovarian = test system: OVCAR-8 ovarian
OVCAR-3 ovarian = test system: OVCAR-3 ovarian
SK-MEL-2 melanoma = test system: SK-MEL-2 melanoma
DLD-1 colon = test system: DLD-1 colon
HOP-92 NSCLC = test system: HOP-92 NSCLC
LOX IMVI melanoma = test system: LOX IMVI melanoma
ACHN renal = test system: ACHN renal
TK-10 renal = test system: TK-10 renal
HT29 colon = test system: HT29 colon
OVCAR-5 ovarian = test system: OVCAR-5 ovarian
SNB-75 CNS = test system: SNB-75 CNS
SK-MEL-28 melanoma = test system: SK-MEL-28 melanoma
KM20L2 colon = test system: KM20L2 colon
SW-620 colon = test system: SW-620 colon
NCI-H226 lung = test system: NCI-H226 lung
HL-60(TB) leukemia = test system: HL-60(TB) leukemia
NCI-H460 lung = test system: NCI-H460 lung
SF-268 CNS = test system: SF-268 CNS
K-562 leukemia = test system: K-562 leukemia
786-0 renal = test system: 786-0 renal
SR leukemia = test system: SR leukemia
MOLT-4 leukemia = test system: MOLT-4 leukemia
UACC-257 melanoma = test system: UACC-257 melanoma
SK-MEL-5 melanoma = test system: SK-MEL-5 melanoma
U251 CNS = test system: U251 CNS
RXF-631 renal = test system: RXF-631 renal
CCRF-CEM leukemia = test system: CCRF-CEM leukemia
HCT-15 colon = test system: HCT-15 colon
UO-31 renal = test system: UO-31 renal
UACC-62 melanoma = test system: UACC-62 melanoma
DMS 273 small cell lung = test system: DMS 273 small cell lung
OVCAR-4 ovarian = test system: OVCAR-4 ovarian
SNB-19 CNS = test system: SNB-19 CNS
XF 498 CNS = test system: XF 498 CNS
CAKI-1 renal = test system: CAKI-1 renal
NCI-H522 lung = test system: NCI-H522 lung
MALME-3M melanoma = test system: MALME-3M melanoma
A549 NSCLC = test system: A549 NSCLC
COLO 205 colon = test system: COLO 205 colon
SN12C renal = test system: SN12C renal
DMS 114 small cell lung = test system: DMS 114 small cell lung
A498 renal = test system: A498 renal

COc1ccc(/C=N/N=C(\N)NO)cc1F
TGI (HOP-18 NSCLC): 90.5 µM
TGI (NCI-H23 lung): 81 µM
TGI (IGROV1 ovarian): > 100 µM
TGI (LXFL 529 NSCLC): > 100 µM
TGI (SNB-78 CNS): > 100 µM
TGI (HCC-2998 colon): > 100 µM
TGI (M19-MEL melanoma): 72.3 µM
TGI (RPMI-8226 leukemia): > 100 µM
TGI (HCT-116 colon): > 100 µM
TGI (RXF 393 renal): 73.2 µM
TGI (HOP-62 NSCLC): 72.5 µM
TGI (M14 melanoma): 33.3 µM
TGI (EKVX NSCLC): > 100 µM
TGI (KM12 colon): > 100 µM
TGI (SK-OV-3 ovarian): > 100 µM
TGI (SF-539 CNS): 60.1 µM
TGI (SF-295 CNS): 87.6 µM
TGI (OVCAR-8 ovarian): > 100 µM
TGI (OVCAR-3 ovarian): > 100 µM
TGI (SK-MEL-2 melanoma): > 100 µM
TGI (DLD-1 colon): > 100 µM
TGI (HOP-92 NSCLC): 76.2 µM
TGI (LOX IMVI melanoma): 48.7 µM
TGI (ACHN renal): 45.3 µM
TGI (TK-10 renal): > 100 µM
TGI (HT29 colon): 38.3 µM
TGI (OVCAR-5 ovarian): 97.2 µM
TGI (SNB-75 CNS): 89.5 µM
TGI (SK-MEL-28 melanoma): > 100 µM
TGI (KM20L2 colon): > 100 µM
TGI (SW-620 colon): > 100 µM
TGI (NCI-H226 lung): 41.4 µM
TGI (HL-60(TB) leukemia): > 100 µM
TGI (NCI-H460 lung): > 100 µM
TGI (SF-268 CNS): 66.7 µM
TGI (K-562 leukemia): 56.4 µM
TGI (786-0 renal): 48.5 µM
TGI (SR leukemia): 86.5 µM
TGI (MOLT-4 leukemia): > 100 µM
TGI (UACC-257 melanoma): > 100 µM
TGI (SK-MEL-5 melanoma): 18.5 µM
TGI (U251 CNS): > 100 µM
TGI (RXF-631 renal): > 100 µM
TGI (CCRF-CEM leukemia): > 100 µM
TGI (HCT-15 colon): > 100 µM
TGI (UO-31 renal): 39.6 µM
TGI (UACC-62 melanoma): 36.3 µM
TGI (DMS 273 small cell lung): 84.4 µM
TGI (OVCAR-4 ovarian): > 100 µM
TGI (SNB-19 CNS): > 100 µM
TGI (XF 498 CNS): 96 µM
TGI (CAKI-1 renal): 46.5 µM
TGI (NCI-H522 lung): 87.1 µM
TGI (MALME-3M melanoma): > 100 µM
TGI (A549 NSCLC): 85.6 µM
TGI (COLO 205 colon): > 100 µM
TGI (SN12C renal): > 100 µM

N#CC(C(=N/O)/C(=N\O)C(C#N)c1ccccc1)c1ccccc1 (centres undefined)
TGI (HOP-18 NSCLC): > 100 µM
TGI (NCI-H23 lung): > 100 µM
TGI (IGROV1 ovarian): > 100 µM
TGI (LXFL 529 NSCLC): > 100 µM
TGI (SNB-78 CNS): > 100 µM
TGI (HCC-2998 colon): > 100 µM
TGI (M19-MEL melanoma): > 100 µM
TGI (RPMI-8226 leukemia): > 100 µM
TGI (HCT-116 colon): > 100 µM
TGI (RXF 393 renal): > 100 µM
TGI (HOP-62 NSCLC): > 100 µM
TGI (M14 melanoma): > 100 µM
TGI (EKVX NSCLC): > 100 µM
TGI (KM12 colon): > 100 µM
TGI (SK-OV-3 ovarian): > 100 µM
TGI (SF-539 CNS): > 100 µM
TGI (SF-295 CNS): > 100 µM
TGI (OVCAR-8 ovarian): > 100 µM
TGI (OVCAR-3 ovarian): > 100 µM
TGI (SK-MEL-2 melanoma): > 100 µM
TGI (DLD-1 colon): > 100 µM
TGI (HOP-92 NSCLC): > 100 µM
TGI (LOX IMVI melanoma): > 100 µM
TGI (ACHN renal): > 100 µM
TGI (TK-10 renal): > 100 µM
TGI (DMS 114 small cell lung): > 100 µM
TGI (HT29 colon): > 100 µM
TGI (OVCAR-5 ovarian): > 100 µM
TGI (SNB-75 CNS): > 100 µM
TGI (SK-MEL-28 melanoma): > 100 µM
TGI (KM20L2 colon): > 100 µM
TGI (SW-620 colon): > 100 µM
TGI (NCI-H226 lung): > 100 µM
TGI (HL-60(TB) leukemia): > 100 µM
TGI (NCI-H460 lung): > 100 µM
TGI (SF-268 CNS): > 100 µM
TGI (K-562 leukemia): > 100 µM
TGI (786-0 renal): > 100 µM
TGI (MOLT-4 leukemia): > 100 µM
TGI (UACC-257 melanoma): > 100 µM
TGI (SK-MEL-5 melanoma): > 100 µM
TGI (U251 CNS): > 100 µM
TGI (A498 renal): > 100 µM
TGI (RXF-631 renal): > 100 µM
TGI (CCRF-CEM leukemia): > 100 µM
TGI (HCT-15 colon): > 100 µM
TGI (UO-31 renal): > 100 µM
TGI (UACC-62 melanoma): > 100 µM
TGI (OVCAR-4 ovarian): > 100 µM
TGI (SNB-19 CNS): > 100 µM
TGI (XF 498 CNS): > 100 µM
TGI (NCI-H522 lung): > 100 µM
TGI (MALME-3M melanoma): > 100 µM
TGI (A549 NSCLC): > 100 µM
TGI (COLO 205 colon): > 100 µM
TGI (SN12C renal): > 100 µM

Cc1cc(Cl)ccc1N=C1NC(=O)C(CC(=O)Nc2cccc(C)c2C)S1 (centres undefined)
TGI (NCI-H23 lung): 52.1 µM
TGI (IGROV1 ovarian): > 100 µM
TGI (SNB-78 CNS): 79.7 µM
TGI (HCC-2998 colon): 65.1 µM
TGI (M19-MEL melanoma): > 100 µM
TGI (RPMI-8226 leukemia): 64.2 µM
TGI (HOP-62 NSCLC): 62.6 µM
TGI (M14 melanoma): 50.9 µM
TGI (EKVX NSCLC): > 100 µM
TGI (KM12 colon): > 100 µM
TGI (SK-OV-3 ovarian): 55.9 µM
TGI (SF-539 CNS): 43.4 µM
TGI (SF-295 CNS): 81.2 µM
TGI (OVCAR-8 ovarian): 75.9 µM
TGI (OVCAR-3 ovarian): > 100 µM
TGI (SK-MEL-2 melanoma): 46.9 µM
TGI (DLD-1 colon): > 100 µM
TGI (HOP-92 NSCLC): 26.5 µM
TGI (LOX IMVI melanoma): 80.6 µM
TGI (ACHN renal): 73.6 µM
TGI (TK-10 renal): > 100 µM
TGI (DMS 114 small cell lung): 66.6 µM
TGI (HT29 colon): > 100 µM
TGI (OVCAR-5 ovarian): > 100 µM
TGI (SNB-75 CNS): 48.8 µM
TGI (SK-MEL-28 melanoma): > 100 µM
TGI (KM20L2 colon): 87.2 µM
TGI (SW-620 colon): > 100 µM
TGI (NCI-H460 lung): > 100 µM
TGI (SF-268 CNS): > 100 µM
TGI (K-562 leukemia): > 100 µM
TGI (786-0 renal): 47.9 µM
TGI (MOLT-4 leukemia): > 100 µM
TGI (UACC-257 melanoma): > 100 µM
TGI (SK-MEL-5 melanoma): 41.4 µM
TGI (U251 CNS): 74.5 µM
TGI (A498 renal): 50.5 µM
TGI (RXF-631 renal): 84.3 µM
TGI (CCRF-CEM leukemia): > 100 µM
TGI (HCT-15 colon): > 100 µM
TGI (UO-31 renal): 51.5 µM
TGI (UACC-62 melanoma): 71.3 µM
TGI (DMS 273 small cell lung): 81 µM
TGI (OVCAR-4 ovarian): 69.2 µM
TGI (SNB-19 CNS): 68.3 µM
TGI (XF 498 CNS): 39 µM
TGI (CAKI-1 renal): 54.5 µM
TGI (MALME-3M melanoma): 65.1 µM
TGI (A549 NSCLC): 96.3 µM
TGI (COLO 205 colon): 46.2 µM
TGI (SN12C renal): 82.3 µM
